Source: PMC8820799, “Angiogenesis and anti-leukaemia activity of novel indole derivatives as potent colchicine binding site inhibitors” (Journal of Enzyme Inhibition and Medicinal Chemistry, 2022)

How the values were obtained:
[1] = biological target: T1, Tubulin isolated from porcine brain tissue (Sus scrofa, UniProt P02550+P02554); assay: Tubulin polymerisation assay; format: biochemical; settings: triplicate, mean ± SD; read-out: Tubulin (tubulin inhibitory polymerisation IC50)
T1 construct: purchased Cytoskeleton (Denver, CO), via Beyotime, China; host or cells: porcine brain tissue
Procedure: Tubulin polymerisation was determined with the tubulin polymerisation assay kit (Cytoskeleton, Denver, CO which was purchased from Cytoskeleton, Beyotime, China. Tubulin isolated from porcine brain tissue was used in this commercial kit.) It is based on the principal that light is scattered by microtubules to an extent that is proportional to the concentration of the microtubule polymer. Compounds that interact with tubulin will alter the polymerisation of tubulin, and this can be detected using a spectrophotometer. Tubulin polymerisation dynamics was monitored through measuring the change of absorbance at 340 nm every 2 min for 30 min at 37 °C on a spectrophotometer.

[2] = test system: transgenic zebrafish (FLK-1:EGFP); assay: Zebrafish angiogenesis assay (ISVs); format: in vivo; settings: Danio rerio, transgenic zebrafish; triplicate, mean ± SD; read-out: Zebrafish (antiangiogenic activity IC50)
Procedure: The transgenic flk: enhanced GFP zebrafish embryos were generated by pair-wise mating, collected and sorted into the 6-well plate (n = 30 per well) with 1 ml of aquaculture water (0.2 g/L of Instant Ocean Salt in distilled water) and raised at 28 °C. Then the embryos staged at 12 h post fertilisation (hpf) were treated with the indicated concentrations of compounds which were added into embryo water. About 30 embryos were screened for each concentration gradient. At 30hpf, the treated embryos were anaesthetised with 0.02% tricaine in embryo water and photographed. The numbers of ISVs were recorded under confocal microscopy. Results were obtained from three independent determinations and presented as mean ± SD.[38]

T1 sequence (P02554 whole entry): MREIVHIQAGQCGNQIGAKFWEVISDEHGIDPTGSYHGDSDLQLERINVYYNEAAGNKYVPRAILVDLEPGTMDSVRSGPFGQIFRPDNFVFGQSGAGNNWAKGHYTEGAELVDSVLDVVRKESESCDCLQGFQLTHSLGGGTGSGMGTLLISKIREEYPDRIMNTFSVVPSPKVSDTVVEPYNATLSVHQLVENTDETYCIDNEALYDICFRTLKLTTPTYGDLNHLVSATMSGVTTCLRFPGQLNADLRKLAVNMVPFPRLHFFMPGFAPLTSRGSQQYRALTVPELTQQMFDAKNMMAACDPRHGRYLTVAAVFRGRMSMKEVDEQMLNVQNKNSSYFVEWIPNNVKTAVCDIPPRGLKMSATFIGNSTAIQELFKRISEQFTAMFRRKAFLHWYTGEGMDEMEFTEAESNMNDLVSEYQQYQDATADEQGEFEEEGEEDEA
T1 sequence (P02550 whole entry): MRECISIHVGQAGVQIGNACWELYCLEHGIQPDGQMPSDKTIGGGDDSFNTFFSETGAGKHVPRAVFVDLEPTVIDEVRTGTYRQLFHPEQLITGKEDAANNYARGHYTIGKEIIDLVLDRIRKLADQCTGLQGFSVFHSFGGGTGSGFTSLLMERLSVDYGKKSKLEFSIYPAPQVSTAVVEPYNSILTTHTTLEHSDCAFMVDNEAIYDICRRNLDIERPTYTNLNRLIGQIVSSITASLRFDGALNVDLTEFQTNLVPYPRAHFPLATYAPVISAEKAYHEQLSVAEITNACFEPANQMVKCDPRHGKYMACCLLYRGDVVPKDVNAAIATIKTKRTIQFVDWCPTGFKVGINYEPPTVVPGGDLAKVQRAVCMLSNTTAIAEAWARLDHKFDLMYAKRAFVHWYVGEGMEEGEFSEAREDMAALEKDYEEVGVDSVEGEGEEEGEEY

melting point | IC50 [1] | Compound | IC50 [2]
167 to 168 °C | 87.2 ± 1.4 µM | COc1cccc(C(=O)/C=C/c2cn(S(=O)(=O)c3ccccc3)c3ccccc23)c1 [Compound 27e, (E)-1–(3-Methoxyphenyl)-3–(1-(phenylsulfonyl)-1H-indol-3-yl)prop-2-en-1-one] | –
171 to 173 °C | > 100 µM | Cn1cc(/C=C/C(=O)c2ccc(Cl)cc2)c2ccccc21 [Compound 25a, (E)-1–(4-chlorophenyl)-3–(1-methyl-1H-indol-3-yl)prop-2-en-1-one] | –
– | > 100 µM | Cn1cc(/C=C/C(=O)c2ccccc2)c2ccccc21 [Compound 23a, (E)-3–(1-Methyl-1H-indol-3-yl)-1-phenylprop-2-en-1-one] | –
165 to 168 °C | 78.8 ± 1.3 µM | CCn1cc(/C=C/C(=O)c2ccc(OC)cc2)c2ccccc21 [Compound 26b, (E)-3–(1-Ethyl-1H-indol-3-yl)-1–(4-methoxyphenyl)prop-2-en-1-one] | –
161 to 163 °C | 68.6 ± 3.2 µM | O=C(/C=C/c1cn(Cc2ccccc2)c2ccccc12)c1ccccc1 [Compound 23d, (E)-3–(1-Benzyl-1H-indol-3-yl)-1-phenylprop-2-en-1-one] | –
160 to 162 °C | 85.7 ± 2.5 µM | COc1ccc(C(=O)/C=C/c2cn(C)c3ccccc23)cc1 [Compound 26a, (E)-1–(4-Methoxyphenyl)-3–(1-methyl-1H-indol-3-yl)prop-2-en-1-one] | –
165 to 168 °C | > 100 µM | CCn1cc(/C=C/C(=O)c2ccccc2)c2ccccc21 [Compound 23b, (E)-3–(1-Ethyl-1H-indol-3-yl)-1-phenylprop-2-en-1-one] | –
161 to 163 °C | 75.8 ± 2.6 µM | COc1ccc(C(=O)/C=C/c2cn(Cc3ccccc3)c3ccccc23)cc1 [Compound 26d, (E)-3–(1-Benzyl-1H-indol-3-yl)-1–(4-methoxyphenyl)prop-2-en-1-one] | –
173 to 175 °C | > 100 µM | Cn1cc(/C=C/C(=O)c2cccc(Cl)c2)c2ccccc21 [Compound 24a, (E)-1–(3-Chlorophenyl)-3–(1-methyl-1H-indol-3-yl)prop-2-en-1-one] | –
160 to 162 °C | > 100 µM | Cn1cc(/C=C/C(=O)c2ccc(C(F)(F)F)cc2)c2ccccc21 [Compound 28a, (E)-3–(1-Methyl-1H-indol-3-yl)-1–(4-(trifluoromethyl)phenyl)prop-2-en-1-one] | –
160 to 163 °C | > 100 µM | O=C(/C=C/c1cn(Cc2ccccc2)c2ccccc12)c1ccc(C(F)(F)F)cc1 [Compound 28d, (E)-3–(1-Benzyl-1H-indol-3-yl)-1–(4-(trifluoromethyl)phenyl)prop-2-en-1-one] | –
– | 45.7 ± 2.3 µM | COc1cc(C(=O)C=Cc2ccc3sc4ccccc4c3c2)cc(OC)c1OC [Compound 8] | 68.6 ± 2.1 µM
161 to 162 °C | 26.8 ± 4.6 µM | CCCn1cc(/C=C/C(=O)c2ccc(C(F)(F)F)cc2)c2ccccc21 [Compound 28c, (E)-3–(1-Propyl-1H-indol-3-yl)-1–(4-(trifluoromethyl)phenyl)prop-2-en-1-one] | –
165 to 168 °C | > 100 µM | CCn1cc(/C=C/C(=O)c2ccc(Cl)cc2)c2ccccc21 [Compound 25b, (E)-1–(4-chlorophenyl)-3–(1-ethyl-1H-indol-3-yl)prop-2-en-1-one] | –
162 to 164 °C | > 100 µM | CCCn1cc(/C=C/C(=O)c2cc(OC)c(OC)c(OC)c2)c2ccccc21 [Compound 29c, (E)-3–(1-Propyl-1H-indol-3-yl)-1–(3,4,5-trimethoxyphenyl)prop-2-en-1-one] | –
155 to 158 °C | > 100 µM | CCn1cc(/C=C/C(=O)c2cc(OC)c(OC)c(OC)c2)c2ccccc21 [Compound 29b, (E)-3–(1-Ethyl-1H-indol-3-yl)-1–(3,4,5-trimethoxyphenyl)prop-2-en-1-one] | –
160 to 163 °C | 24.8 ± 2.1 µM | COc1cc(C(=O)/C=C/c2cn(Cc3ccccc3)c3ccccc23)cc(OC)c1OC [Compound 29d, (E)-3–(1-Benzyl-1H-indol-3-yl)-1–(3,4,5-trimethoxyphenyl)prop-2-en-1-one] | 6.7 ± 0.5 µM
160 to 162 °C | > 100 µM | CCCn1cc(/C=C/C(=O)c2ccc(Cl)cc2)c2ccccc21 [Compound 25c, (E)-1–(4-chlorophenyl)-3–(1-propyl-1H-indol-3-yl)prop-2-en-1-one] | –
165 to 168 °C | > 100 µM | O=C(/C=C/c1cn(S(=O)(=O)c2ccccc2)c2ccccc12)c1ccccc1 [Compound 23e, (E)-1-Phenyl-3–(1-(phenylsulfonyl)-1H-indol-3-yl)prop-2-en-1-one] | –

melting point | IC50 [1] | Compound | IC50 [2]
– | 8.5 ± 1.2 µM | COc1cc(C(=O)C=Cc2c[nH]c3ccccc23)cc(OC)c1OC [Compound 6] | 27.8 ± 0.9 µM
161 to 162 °C | > 100 µM | CCCn1cc(/C=C/C(=O)c2cccc(Cl)c2)c2ccccc21 [Compound 24c, (E)-1–(3-Chlorophenyl)-3–(1-propyl-1H-indol-3-yl)prop-2-en-1-one] | –
165 to 166 °C | > 100 µM | CCn1cc(/C=C/C(=O)c2cccc(OC)c2)c2ccccc21 [Compound 27b, (E)-3–(1-Ethyl-1H-indol-3-yl)-1–(3-methoxyphenyl)prop-2-en-1-one] | –
167 to 170 °C | 10.4 ± 0.7 µM | O=C(/C=C/c1cn(S(=O)(=O)c2ccccc2)c2ccccc12)c1ccc(C(F)(F)F)cc1 [Compound 28e, (E)-3–(1-(phenylsulfonyl)-1H-indol-3-yl)-1–(4-(trifluoromethyl)phenyl)prop-2-en-1-one] | 5.8 ± 2.1 µM
161 to 163 °C | > 100 µM | O=C(/C=C/c1cn(Cc2ccccc2)c2ccccc12)c1cccc(Cl)c1 [Compound 24d, (E)-3–(1-Benzyl-1H-indol-3-yl)-1–(3-chlorophenyl)prop-2-en-1-one] | –
– | 18.6 ± 0.5 µM | COc1cc(C(=O)C=Cc2cc3ccccc3o2)cc(OC)c1OC [Compound 7] | 29.5 ± 1.5 µM
162 to 165 °C | > 100 µM | O=C(/C=C/c1cn(S(=O)(=O)c2ccccc2)c2ccccc12)c1ccc(Cl)cc1 [Compound 25e, (E)-1–(4-chlorophenyl)-3–(1-(phenylsulfonyl)-1H-indol-3-yl)prop-2-en-1-one] | –
161 to 163 °C | > 100 µM | COc1cccc(C(=O)/C=C/c2cn(Cc3ccccc3)c3ccccc23)c1 [Compound 27d, (E)-3–(1-Benzyl-1H-indol-3-yl)-1–(3-methoxyphenyl)prop-2-en-1-one] | –
161 to 162 °C | > 100 µM | COc1cccc(C(=O)/C=C/c2cn(C)c3ccccc23)c1 [Compound 27a, (E)-1–(3-Methoxyphenyl)-3–(1-methyl-1H-indol-3-yl)prop-2-en-1-one] | –
160 to 162 °C | 49.9 ± 8.5 µM | COc1cc(C(=O)/C=C/c2cn(C)c3ccccc23)cc(OC)c1OC [Compound 29a, (E)-3–(1-Methyl-1H-indol-3-yl)-1–(3,4,5-trimethoxyphenyl)prop-2-en-1-one] | 15.7 ± 3.2 µM
165 to 168 °C | 92.3 ± 2.4 µM | O=C(/C=C/c1cn(S(=O)(=O)c2ccccc2)c2ccccc12)c1cccc(Cl)c1 [Compound 24e, (E)-1–(3-Chlorophenyl)-3–(1-(phenylsulfonyl)-1H-indol-3-yl)prop-2-en-1-one] | –
165 to 168 °C | > 100 µM | CCn1cc(/C=C/C(=O)c2ccc(C(F)(F)F)cc2)c2ccccc21 [Compound 28b, (E)-3–(1-ethyl-1H-indol-3-yl)-1–(4-(trifluoromethyl)phenyl)prop-2-en-1-one] | –
161 to 162 °C | 52.1 ± 2.9 µM | CCCn1cc(/C=C/C(=O)c2cccc(OC)c2)c2ccccc21 [Compound 27c, (E)-1–(3-Methoxyphenyl)-3–(1-propyl-1H-indol-3-yl)prop-2-en-1-one] | 18.6 ± 3.2 µM
– | 20.8 ± 1.4 µM | COc1cc(C(=O)C=Cc2nc3ccccc3[nH]2)cc(OC)c1OC [Compound 9] | > 100 µM
165 to 168 °C | > 100 µM | CCn1cc(/C=C/C(=O)c2cccc(Cl)c2)c2ccccc21 [Compound 24b, (E)-1–(3-Chlorophenyl)-3–(1-ethyl-1H-indol-3-yl)prop-2-en-1-one] | –
161 to 162 °C | > 100 µM | CCCn1cc(/C=C/C(=O)c2ccccc2)c2ccccc21 [Compound 23c, (E)-1-Phenyl-3–(1-propyl-1H-indol-3-yl)prop-2-en-1-one] | –
161 to 162 °C | 72.5 ± 1.7 µM | CCCn1cc(/C=C/C(=O)c2ccc(OC)cc2)c2ccccc21 [Compound 26c, (E)-1–(4-Methoxyphenyl)-3–(1-propyl-1H-indol-3-yl)prop-2-en-1-one] | –
163 to 165 °C | > 100 µM | O=C(/C=C/c1cn(Cc2ccccc2)c2ccccc12)c1ccc(Cl)cc1 [Compound 25d, (E)-3–(1-benzyl-1H-indol-3-yl)-1–(4-chlorophenyl)prop-2-en-1-one] | –
